These results are taken from publication PMC12380353, “MK-8527 is a novel inhibitor of HIV-1 reverse transcriptase translocation with potential for extended-duration dosing” (PLOS Biology, 2025).

Data set [1] can be described thus: Uptake and phosphorylation assay in PBMCs. The format is in vitro ADME, human. Particulars: PBMCs incubated with 0.21 nM MK-8527. Here is the method:
To determine the amount of MK-8527 phosphorylated forms produced after treatment of PBMCs, uptake and phosphorylation assays were performed. PBMCs were activated with 5 µg/mL PHA in RPMI 1640, 10% FBS, 100 units/mL penicillin, and 100 µg/mL streptomycin at 1.2 × 10^6 cells/mL. All incubations were in a humidified incubator at 37 °C and with 5% CO2. After 3–4 days in culture, media containing PHA were removed by centrifugation at 300g for 10 min. Cells were resuspended at 2 × 10^6 cells/mL in RPMI 1,640, 10% NHS, 100 units/mL penicillin, 100 µg/mL streptomycin, and 20 units/mL IL-2. A total of 7.5 × 10^6 to 2 × 10^7 cells were transferred to a miniature bioreactor tube. […]
The intracellular concentration of MK-8527-TP was determined by an LC–MS/MS assay. […] Quantification was performed by monitoring the transitions of m/z 548.9 to 169.1 for MK-8527-TP. […] The method’s lower limit of quantification was between 1 and 5 nM depending on the assay volumes of cell suspension. Analyte concentrations in cell samples across species were determined from the standard curves using linear regression with 1/×2 weighting.
Concentrations of intracellular phosphorylated forms were expressed in picomoles per 10^6 cells by using the molar concentration of each compound as determined by LC–MS/MS and the number of viable cells included in each 100-µL sample.

Data set [2] is described as follows: PK in rhesus monkeys (plasma). The format is in vivo. On the procedure:
For the IV arm of the study, MK-8527 was administered as a bolus via the cephalic vein at 0.5 mg/kg in 30% Captisol (Ligand Pharmaceuticals, Lawrence, KS, USA). […] After the 6-h time point, they were returned to their cages and placed in a bleed chair for the subsequent time points. No anesthesia was used. As enrichment, animals were pair housed with conspecifics in cages with […]. […] Animals were fed certified primate diet (LabDiet 5048) and given a vitamin C supplement daily. In addition, animals received rotational fruit and vegetables as well as a foraging mix daily. All blood samples were centrifuged at 2,000g for 10 min, and the supernatant plasma samples were removed and stored at -70 °C until further analysis. The concentrations of MK-8527 in plasma were determined by LC-MS/MS assays following a protein precipitation step. Aliquots (50 μL) of plasma were precipitated by addition of 150 μL of acetonitrile solution-containing internal standard (IS), followed by centrifugation at 3,000 rpm for 10 min. A 75-μL aliquot of the supernatant was transferred into a 96-well plate, and 5 μL of each sample was used for analysis. LC-MS/MS analysis was performed on a Transcend LC system with HTS PAL CTC autosampler (Thermo Fisher Scientific, Waltham, MA, USA) interfaced to an API-5000 mass spectrometer using the turbo ion spray interface (Sciex, Framingham, MA, USA). Separation of MK-8527 was achieved on an Xselect HSS XP T3 column (50 × 2.1 mm, 2.5 μm; […] The chromatography for plasma samples was run using gradient elution as follows: the column was equilibrated with 100% A. […] The total run time was 4.15 min. Quantification was done by monitoring the transition of m/z 309 to m/z 169 or 133 for MK-8527. The method was linear across a concentration range of 2-10,000 ng/mL in plasma.

The subject of data set [3] is panel of unrelated viruses. Particulars: all other viruses of the panel, up to highest concentration tested, 50 µM.

Molecules are shown by their SMILES. “And” between values parts separate entries of the source, which are not always exact repeats. Equal values may be shown once. Read-outs that look alike come from different tables or passages of the source.

Consider `C#C[C@]1(COP(=O)(O)OP(=O)(O)OP(=O)(O)O)O[C@@H](n2ccc3c(N)nc(Cl)nc32)C[C@@H]1O` [MK-8527-TP], for which the “Intracellular MK-8527-TP level by LC–MS/MS” value in data set [1] was “below the limit of quantitation”.
On to `C#C[C@]1(CO)O[C@@H](n2ccc3c(N)nc(Cl)nc32)C[C@@H]1O` [Compound 12, (2R,3S,5R)-5-(4-amino-2-chloro-7H-pyrrolo[2,3-d]pyrimidin-7-yl)-2-ethynyl-2-(hydroxymethyl)tetrahydrofuran-3-ol], for which the concentration at 72 h in data set [2] (monkeys, oral 50 mg/kg, 0.25 hr, listed as MK-8527, 50 mg/kg, read-out: Concentration in plasma, individual subjects) is 7.22 µM and 1.93 µM and 8.67 µM; in data set [2] (monkeys, oral 50 mg/kg, 0.5 hr, listed as MK-8527, 50 mg/kg, read-out: Concentration in plasma, individual subjects), 11.00 µM and 4.12 µM and 11.10 µM; in data set [2] (monkeys, oral 50 mg/kg, 1 hr, listed as MK-8527, 50 mg/kg, read-out: Concentration in plasma, individual subjects) it was 29.80 µM and 7.40 µM and 20.20 µM; in data set [2] (monkeys, oral 50 mg/kg, 2 hr, listed as MK-8527, 50 mg/kg, read-out: Concentration in plasma, individual subjects), 30.50 µM and 11.00 µM and 27.80 µM; in data set [2] (monkeys, oral 50 mg/kg, 4 hr, listed as MK-8527, 50 mg/kg, read-out: Concentration in plasma, individual subjects) it was 15.20 µM and 15.40 µM; in data set [2] (monkeys, oral 50 mg/kg, 6 hr, listed as MK-8527, 50 mg/kg, read-out: Concentration in plasma, individual subjects) it was 14.30 µM and 9.31 µM. In addition, the concentration at 72 h was 1.81 µM and 1.27 µM in data set [2] (monkeys, oral 50 mg/kg, 24 hr, listed as MK-8527, 50 mg/kg, read-out: Concentration in plasma, individual subjects); 0.81 µM and 0.58 µM in data set [2] (monkeys, oral 50 mg/kg, 30 hr, listed as MK-8527, 50 mg/kg, read-out: Concentration in plasma, individual subjects); 0.31 µM and 0.26 µM and 0.13 µM in data set [2] (monkeys, oral 50 mg/kg, 48 hr, listed as MK-8527, 50 mg/kg, read-out: Concentration in plasma, individual subjects); 0.07 µM and 0.05 µM in data set [2] (monkeys, oral 50 mg/kg, 72 hr, listed as MK-8527, 50 mg/kg, read-out: Concentration in plasma, individual subjects); 0.0143 µM and 0.0113 µM and 0.00651 µM in data set [2] (monkeys, oral 50 mg/kg, 168 hr, listed as MK-8527, 50 mg/kg, read-out: Concentration in plasma, individual subjects); 0.07 µM in data set [2] (rhesus monkey, plasma, po, 50 mg/kg, monkeys, oral 50 mg/kg, 72 hr, read-out: Arithmetic Mean Concentration in plasma). Further, the concentration at 72 h in data set [2] (rhesus monkey, plasma, po, 50 mg/kg, monkeys, oral 50 mg/kg, 72 hr, read-out: Concentration in plasma, individual subjects) is 0.09 µM. For the same molecule, the half-life in data set [2] (rhesus monkey, plasma, iv, 0.5 mg/kg, monkey, plasma, IV 0.5 mg/kg, read-out: t½ (converted)) is ~7 h. Further, the concentration at 0.25 h in data set [2] (rhesus monkey, plasma, po, 50 mg/kg, monkeys, oral 50 mg/kg, 0.25 hr, read-out: Arithmetic Mean Concentration in plasma) worked out at 4.94 µM. In addition, the concentration at 0.5 h in data set [2] (rhesus monkey, plasma, po, 50 mg/kg, monkeys, oral 50 mg/kg, 0.5 hr, read-out: Arithmetic Mean Concentration in plasma) came to 7.95 µM. Moreover, the concentration at 1 h in data set [2] (rhesus monkey, plasma, po, 50 mg/kg, monkeys, oral 50 mg/kg, 1 hr, read-out: Arithmetic Mean Concentration in plasma) worked out at 16.4 µM. Further, the concentration at 30 h worked out at 0.79 µM in data set [2] (rhesus monkey, plasma, po, 50 mg/kg, monkeys, oral 50 mg/kg, 30 hr, read-out: Arithmetic Mean Concentration in plasma) and 1.04 µM in data set [2] (rhesus monkey, plasma, po, 50 mg/kg, monkeys, oral 50 mg/kg, 30 hr, read-out: Concentration in plasma, individual subjects). Also, in data set [2] (rhesus monkey, plasma, po, 50 mg/kg, monkeys, oral 50 mg/kg, 48 hr, read-out: Arithmetic Mean Concentration in plasma), the concentration at 48 h came to 0.22 µM. In addition, the concentration at 168 h in data set [2] (rhesus monkey, plasma, po, 50 mg/kg, monkeys, oral 50 mg/kg, 168 hr, read-out: Arithmetic Mean Concentration in plasma) came to 0.01 µM. In addition, the clearance in data set [2] (rhesus monkey, plasma, monkey, IV 0.5 mg/kg, read-out: CLp) is 12.6 ± 3.3 mL/min/kg. The Vd in data set [2] (rhesus monkey, plasma, monkey, IV 0.5 mg/kg, read-out: Vdss) came to 4.4 ± 0.8 L/kg. In data set [2] (rhesus monkey, plasma, monkey, oral 1 mg/kg), the bioavailability is 100%. For the same molecule, the concentration at 2 h in data set [2] (rhesus, rhesus monkey, plasma, po, 50 mg/kg, monkeys, oral 50 mg/kg, 2 hr, read-out: Arithmetic Mean Concentration in plasma) came out at 21.1 µM. For the same molecule, the concentration at 4 h was determined as 15.8 µM in data set [2] (rhesus, rhesus monkey, plasma, po, 50 mg/kg, monkeys, oral 50 mg/kg, 4 hr, read-out: Arithmetic Mean Concentration in plasma) and 16.9 µM in data set [2] (rhesus, rhesus monkey, plasma, po, 50 mg/kg, monkeys, oral 50 mg/kg, 4 hr, read-out: Concentration in plasma, individual subjects). Moreover, the concentration at 6 h in data set [2] (rhesus, rhesus monkey, plasma, po, 50 mg/kg, monkeys, oral 50 mg/kg, 6 hr, read-out: Arithmetic Mean Concentration in plasma) is 11 µM; in data set [2] (rhesus, rhesus monkey, plasma, po, 50 mg/kg, monkeys, oral 50 mg/kg, 6 hr, read-out: Concentration in plasma, individual subjects), 10.1 µM. Moreover, the concentration at 24 h in data set [2] (rhesus, rhesus monkey, plasma, po, 50 mg/kg, monkeys, oral 50 mg/kg, 24 hr, read-out: Arithmetic Mean Concentration in plasma) was 1.75 µM; in data set [2] (rhesus, rhesus monkey, plasma, po, 50 mg/kg, monkeys, oral 50 mg/kg, 24 hr, read-out: Concentration in plasma, individual subjects) it was 2.34 µM. Besides, the “Antiviral activity or cytotoxicity” value in data set [3] is on record as “did not display antiviral activity or cytotoxicity”.

One may read the bioavailability as dose-corrected exposure relative to a reference, in per cent. Low readings indicate little systemic uptake, high ones much systemic uptake.
